Measured values as given in patent US9987381B2, “Radioligands for imaging the LPA-1 receptor” (BRISTOL-MYERS SQUIBB COMPANY, priority 2013, dated 2018).
Where two headings read alike, the source gives them in different places.

Assays:
Type in all cases: in vivo, rhesus monkeys
[1] = target: T1, LPA1 (Macaca mulatta, UniProt H9EN64); test: PET saturation study of [11C]-BMT-136088 in lung (bolus plus infusion, VT by MA1/EA); conditions: for ED50: rhesus monkey
T1 construct: from tissue; host or cells: lung of living anaesthetised rhesus monkeys (in vivo PET)
Protocol: (§1) This study was divided in two parts: First, the test-retest variability of [^11C]-BMT-136088 binding in a within-day protocol. Second, a saturation study was performed to evaluate the fraction of specific and non-specific binding for the radiotracer [^11C]-BMT-136088, the in vivo equilibrium dissociation constant KD, and the radiopharmaceutical tracer-dose limit (to achieve less than 5% self-occupancy).
In the saturation study, each animal was scanned twice a day, with varying mass of [^11C]-BMT-136088, from tracer dose to near-saturating doses. The interval between the two scans was the same as in the blocking study and test-retest study. For the first scans, tracer doses were used in 3 out of 4 study days. On the fourth day, the first scan dose was not performed at tracer dose, but the mass of the first dose scan was substantially lower than the second dose to minimize the influence of the first injection on the second scan data.
(§2) Two rhesus monkeys were included in the blocking, test-retest, and saturation studies: one male, one female; age=4.8±0.8 y; weight=8.6±0.4 kg. Studies in the same animal were separated by at least 2 weeks to allow the animal to recover from anesthesia and other effects. Four rhesus monkeys (2M, 2F) were included in the dosimetry study.
(§3) Following a low-dose, CT scan used for attenuation correction and to delineate the lung regions of interest, [^11C]-BMT-136088 was injected using a computer-control pump with a bolus plus infusion protocol, with an initial 1-min bolus and a ˜119-min infusion. The volume injected during the initial bolus represented 100 min (Kbol) worth of infusion in the blocking and test-retest study, and 300 min worth of infusion in the saturation study.
(§4) Beginning at the start of each injection, a 120-minute time-of-flight list-mode acquisition on the mCT PET/CT scanner (Siemens Medical Solutions USA, Inc.) was performed. Dynamic PET scan data were reconstructed with corrections for point-spread function, attenuation, normalization, scatter, randoms, and dead time using a 3D OP-OSEM TOF algorithm. PET images were reconstructed into 33 frames, with the following frame timing: 6×30 sec; 3×1 min; 2×2 min; 22×5 min. Each frame contained 400×400×111 (x,y,z) voxels (2.04×2.04×2.0 mm).
The lungs were semi-automatically delineated using CT images collected before each PET scan. • First, the lungs were segmented based on the CT image values in Hounsfield scale (−1000<HU<−200), using a region growing algorithm and seeds manually placed at the center of the lungs; • The trachea, and occasionally the air in the stomach were manually excluded from the segmentation results; • The segmented lung ROIs were divided into right and left ROIs by manually selecting a plane separating the left and right side of the animal (animals were lying in supine position, but this plane was not always perfectly vertical); • The right and left ROIs were further divided into three smaller ROIs: lower lung, mid lung, and upper lung. The upper lung was defined as the part of the lung above the heart; the lower lung was defined as the part of the lung that is less than 5 slices (˜1 cm) above the topmost axial slice where the top of the liver can be seen.
The lung time-activity curves (TACs) were computed for each ROI and expressed in kBq/cm^3. The lung ROI contains lung tissue, blood, and air. In particular, the lung density may change from scan to scan due to (slight) changes in animal positioning, which can change the left-right location of the heart and change which lung tends to be compressed by the heart. Therefore an estimate of the density of lung ROIs was estimated to convert the TAC units from kBq/cm^3 to kBq/g, as follows. The CT images were converted from Hounsfield scale to linear attenuation values (in cm^−1) for 511 KeV photons. These attenuation values were assumed to be linearly proportional to mass for soft tissue (e.g., lung and heart) and the heart density was assumed to be 1 g/cm^3. […]

[2] = target: T1, LPA1; test: PET blocking study of [11C]-BMT-136088 with BMS-986020; conditions: from BPND 1.1±0.1
Protocol: For the blocking data reanalyzed here, each animal was scanned twice during the administration of [^11C]-BMT-136088, using a bolus plus infusion (B+I) protocol: at baseline first, then during the administration of the blocking drug, BMS-986020, also using a bolus plus infusion protocol.
In the blocking study, BMS-986020 was administered i.v. using a 10-min bolus ([…]) followed by a ˜230 min infusion (0.25 mg/kg/hr) for a total dose of 1.224±0.015 mg/kg.
as §2, §3, §4
Blood samples for PK for each blockade study session were obtained at −1, 60, 90, 120, 150, 210, 240 and 270 minutes after the start of BMS-986020 bolus plus infusion. Red cells were precipitated at 3200 rpm for 10 minutes at 10° C.; the plasma was divided into two aliquots and frozen at −80° C. until shipped for analysis. […]

[3] = target: T1, LPA1; test: PET test-retest study of [11C]-BMT-136088 binding
Protocol: as §1
In the test-retest study, each animal was scanned twice per day, with the same interval between the two scans as in the blocking study, to measure the variability of [^11C]-BMT-136088 binding parameter and assess if there was a systematic difference in binding parameters between the two scan times (for example due to the prolonged anesthesia). The study was performed in the same animals as the blocking study.
as §2, §3
as §4, with “mm). […]” for “mm).”

[4] = Plasma concentration and plasma free fraction in saturation study
Protocol: as §2
Blood samples were also collected for the last three saturation studies at −5, 60, 90 and 120 minutes after the start of [^11C]-BMT-136088 bolus plus infusion with non-tracer doses (n=4). Red cells were precipitated at 3200 rpm for 10 minutes at 10° C.; the plasma was divided into two aliquots and frozen at −80° C. until shipped for analysis. The goal of these measurements was to compare the plasma concentrations estimated from measurements of [^11C]-BMT-136088 and its metabolism using gamma counters and HPLC systems, to that from measurement of unlabeled BMT-136088 using mass spectrometry.

T1 sequence (H9EN64 1-364): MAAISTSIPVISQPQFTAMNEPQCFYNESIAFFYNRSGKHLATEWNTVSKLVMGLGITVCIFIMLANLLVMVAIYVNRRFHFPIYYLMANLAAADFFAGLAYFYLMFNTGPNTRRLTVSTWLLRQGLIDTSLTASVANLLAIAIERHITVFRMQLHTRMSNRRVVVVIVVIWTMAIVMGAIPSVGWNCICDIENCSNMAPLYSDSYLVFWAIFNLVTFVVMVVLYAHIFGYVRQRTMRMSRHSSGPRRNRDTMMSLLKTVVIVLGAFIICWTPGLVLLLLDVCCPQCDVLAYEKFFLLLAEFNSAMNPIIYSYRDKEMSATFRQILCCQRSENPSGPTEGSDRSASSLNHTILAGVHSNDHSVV

IC50 ([1]; MA1 and all corrections, VT versus plasma concentration): 28 ± 12 nM | binding potential BPND ([1]; MA1 with all corrections, lung): 1.1±0.1 | fraction of tracer in lung (excluding blood) specifically bound to LPA1 sites ([1]; at equilibrium): about 50% | Kd ([1]; from plasma IC50 and plasma free fraction, read-out: in vivo KD): 0.055 nM | ED50 ([1]; MA1 with all corrections, read-out: ED50): 0.036 ± 0.015 mg/kg | ED50 ([1]; all ED50 estimates, range over analysis methods, read-out: ED50 estimates (all methods)): 0.036 to 0.056 mg/kg | tracer dose limit ([1]; to occupy less than 5% of LPA1 sites, based on ED50): 0.0019 mg/kg | maximum expected blockade effect [2]: 52% | test-retest variability ([3]; EA, density and blood activity corrections, left ROIs mid and upper lung): −2±10% | test-retest variability ([3]; EA, density and blood activity corrections, right ROIs mid and upper lung): −1±11% | test-retest variability ([3]; MA1, animal A2, left ROIs mid and upper lung): −5% | test-retest variability ([3]; MA1, animal A2, right ROIs mid and upper lung): −8% | fraction unbound ([4]; both sexes, rhesus monkey, plasma, intravenous, measured during the saturation studies): 0.002 | slope of plasma concentration vs injected mass ([4]; saturation study, linear increase): 0.92 nM/(μg/kg)
Structure (SMILES): Cc1noc(-c2ccc(-c3ccc(C4(C(=O)O)CC4)cc3)cc2)c1NC(=O)O[C@H](C)c1cccc([11CH3])c1 [[^11C]-BMT-136088, [11C]-(R)-1-(4′-(3-Methyl-4-(((1-(m-tolyl)ethoxy)carbonyl)amino)isoxazol-5-yl)-[1,1′-biphenyl]-4-yl)cyclopropanecarboxylic acid]
